Where “and” joins values, the source holds several entries; their conditions need not be identical. Equal values may be shown once. Where a name gives a salt, the structure may show the parent alone.
How the values were obtained:
[1] = tested on: HuH-7 cells; experiment: Cell viability in HuH-7 cells (CellTiter-Blue); format: cell-based, human; details: 50 µM, mean of triplicates ± standard deviation
Procedure: In order to assess cytotoxic effects of compounds in cell culture, HuH-7 cells were incubated in presence of these compounds in a 96-well plate for 2 h or 24 h. In order to generate a calibration curve for cell viability, a serial dilution (1:2 dilution series) of cells was seeded into control wells. Measurement of cell viability is based on the assay development using CellTiter-Blue reagent (Resazurin, blue color), which is reduced to resofurin (pink color) by viable cells.
Prior to performing the assay, a 96-well assay plate (F-bottom, transparent, Greiner) containing HuH-7 cells (20,000 cells per well) in culture medium was prepared. […] CellTiter-Blue reagent (1-2 mL) was diluted with cell culture medium (10 mL) in a Falcon tube and prewarmed to 37 °C. The 96-well plate was removed from the incubator, the medium aspirated using a vacuum pump and 100 µL of diluted CellTiter-Blue reagent was added to each well.

[2] = Passive membrane permeation assay (PAMPA); format: in vitro ADME; details: pre-coated PAMPA plate, PBS pH 7.4, 200 µM, 25 °C; for R (mass retention) / Pe: 5 h; for Pe / Papp at 5 h, 200 µM: mean ± standard deviation; for Papp at 5 h, 200 µM: read-out: Pe
Procedure: The passive membrane permeability was evaluated with a pre-coated PAMPA plate system (BD Gentest, BD Bioscience, Germany) following the guidelines of the manufacturer and a previous literature report (cf. Kühl et al. Eur. J. Med. Chem. 2022, 240, 114585). Phosphate-buffered saline (PBS) pH 7.4 (Sigma-Aldrich, Germany) was used for all experiments. Analyte concentrations were determined on a Jasco HPLC system equipped with a UV detector and an RP-18 column (Chromolith® Performance RP-18e, 100x4.6 mm) using one of the gradients listed in Table 2. For all samples, the injection volume was 40 µl. Table 2: HPLC settings for the analysis of PAMPA samples.
Prior to performing the assay, the PAMPA plate was warmed to room temperature for 0.5 h. In the donor plate, 300 µL of the 200 µM compound solutions in PBS (4 % dimethyl sulfoxide (DMSO)) were dispensed in triplicate, and in the acceptor plate, 200 µL of PBS buffer were added to all wells. The plates were combined, and the system was incubated at 25 °C for 5 h. Upon completion of the incubation, donor and acceptor plate were separated. The wells were homogeneously mixed with a pipette, and a 100 µl sample of each donor and acceptor well was transferred to 96 well U-bottom polypropylene plates (Greiner Bio-One, Germany) for quantitative HPLC analysis.

[3] = Prodrug stability in human whole saliva; format: in vitro ADME; details: mean of fresh samples of three individuals, classified into three groups; for half-life at 50 µM: 37 °C
Procedure: Freshly collected saliva and 5 mM stock solutions of the analytes in DMSO were prewarmed to 37 °C for 10 min. Then, 700 µl prewarmed saliva was added to 7 µl of the prodrug stock, and the mixture was incubated at 37 °C. Samples (100 µL) were taken at selected time points (0, 10, 20, 40, 60 min; 2 h or 24 h) and immediately quenched with acetonitrile (200 µl). Blank samples were prepared by mixing saliva (100 µl) with acetonitrile (200 µl). Centrifugation (3,000 rpm, 5 min) of the quenched samples afforded clear supernatants which were transferred to 96 well U-bottom polypropylene plates (Greiner Bio-One, Germany). Analyte quantifications were performed on a Jasco HPLC system equipped with a UV detector and an RP-18 column (Chromolith® Performance RP-18e, 100x4.6 mm) using the gradients listed in Table 4. Samples that gave rise to asymmetric peaks inadequate for quantification were diluted (1:1) with H2O (+0.1 % TFA). The injection volume was 40 µl and the flow was set to 1.0 mL/min. UV detection was performed at 286 nm. […] Table 4: HPLC settings for quantitative analysis of saliva samples.

[4] = Drug release kinetics (prodrug cleavage) in human blood plasma; format: in vitro ADME; details: 37 °C; for half-life at 50 µM: 100 % human plasma; for half-life: 10 % human plasma in PBS, 50 µM
Procedure: Pooled human blood plasma (Biowest, France) and sterile Dulbecco's phosphate buffered saline (PBS) pH 7.3 (Sigma-Aldrich, Germany) were used for all experiments. The blood plasma was aliquoted upon receipt and stored at -20 °C. 10 % solutions were prepared by thawing a plasma aliquot at 2-8 °C, distributing it into plastic vials and diluting with the appropriate volume of sterile PBS. The 10 % and 100 % plasma aliquots were stored at -20 °C and thawed at 2-8 °C directly before the assay was performed. In a thermoblock, a plasma aliquot and 10 µl of a 5 mM prodrug solution in DMSO were prewarmed to 37 °C for 10 min in separate plastic vials. Then, 1000 µl of the prewarmed plasma sample was added to the prodrug solution, and 9×100 µl samples were withdrawn at appropriate time intervals. The enzymatic reaction was quenched by immediate mixing of the samples (100 µl) with acetonitrile (200 µl). Blank samples were prepared by mixing 10 % or 100 % plasma (100 µl) with acetonitrile (200 µl), respectively. Samples of the initial reaction mixture were prepared by adding the 5 mM prodrug solution (1 µl) to a blank sample.
Centrifugation (13,000 rpm, 3 min) of the quenched samples afforded clear supernatants which were transferred to 96 well U-bottom polypropylene plates (Greiner Bio-One, Germany). Analyte quantifications were performed on a Jasco HPLC system equipped with a UV detector and an RP-18 column (Chromolith® Performance RP-18e, 100x4.6 mm) using one of the gradients listed in Table 3. Prodrug degradation was monitored using undiluted supernatant and a 10 min chromatographic method. […] For all samples, the injection volume was 40 µL and the flow was set to 1.0 mL/min. […] Table 3: HPLC settings for quantitative analysis of plasma samples.

[5] = Equilibrium solubility (shake-flask); details: 35.5 °C, pH 6.8, aqueous buffer, thermodynamic from solid
Procedure: For each reported solubility result, one shake-flask experiment was carried out unless otherwise stated. Measurements at pH 2.0 were performed in 0.01 M HCl. Measurements at pH 6.8 were performed in a KH2PO4/K2HPO4 buffer with an ionic strength of 70 mM. For each experiment, the solid, HPLC-purified sample (1.7 - 25 mg) was suspended in 250 - 500 µL of the aqueous buffer in a glass vial. The solution containing solid excess of the sample was then capped and shaken at 220 rpm in an Infors HT Minitron incubator at a defined temperature for 6 hours. Three aliquots (3 × 70 µL) were removed with a fine pipette from each shake-flask experiment, and the saturated solution in these aliquots was separated from precipitate by centrifugation (10000 rpm, 5 min) at the assay temperature. […] The reported values are the mean of three measured concentrations. The error was estimated based on the standard deviation of the three measurements and the uncertainty of the calibration curve. Table 8: Equilibrium solubility of selected prodrugs along with references.

[6] = Stability of prodrugs in methanol (1H NMR); format: physicochemical; details: CD3OD, ambient temperature, within 18 days
Description: The stability of the exemplary carboxylic ester 8b in methanol was studied by dissolving a few milligrams of the fumarate ester in CD3OD at ambient temperature and measuring ^1H NMR spectra in appropriate time intervals.

Row | Compound | Cell Viability in HuH7 at 50 µM, 2 h Incubation [1] [%] | Cell Viability in HuH7 at 50 µM, 24 h Incubation [1] [%] | R (mass retention) [2] [%] | Pe [2] | half-life at 50 µM [3] [min] | half-life at 50 µM [4] [min] | solubility thermodynamic at 6 h [5] | Papp at 5 h, 200 µM [2] [×10⁻⁶ cm/s] | t1/2 at 37 °C and [prodrug]0 = 50 µM, Human Saliva [3] [min] | half-life [4] [min] | initial amount of ester degraded [6]
1 | CCN(C)CCc1c[nH]c2cccc(OCOC(=O)C(C)(C)C)c12 [Compound 15c, 4-Pivaloyloxymethyloxy-N-ethyl-N-methyltryptammonium fumarate] | 48.3 ± 16.1 | 47.1 ± 10.4 | 2 | 9.7 ± 0.6 10^-6 cm/s | < 15 | > 300 | – | – | – | – | –
2 | CN(C)CCc1c[nH]c2cccc(OC(=O)C3CC3)c12 [Compound 19c, 4-(cyclopropanecarbonyloxy)-N,N-dimethyltryptamine] | – | – | – | – | – | – | 32600 µM and 8900 µg/mL | – | – | – | –
3 | CCN(C)CCc1c[nH]c2cccc(OC(=O)C(C)(C)C)c12 [Compound 8f, 4-Pivaloyloxy-N-ethyl-N-methyltryptammonium fumarate] | 80.4 ± 2.1 | 79.4 ± 2.1 | -2 | – | > 60 | > 60 | – | 10.7 ± 0.7 | > 60 | – | –
4 | CCN(C)CCc1c[nH]c2cccc(OC(=O)C(C)C)c12 [Compound 8d, 4-iso-Butyryloxy-N-ethyl-N-methyltryptammonium fumarate] | 91.4 ± 3.7 | 82.1 ± 2.3 | 4 | at least 8 10^-6 cm/s | 15 to 60 | – | – | 9.5 ± 0.7 | – | 0.44 ± 0.03 | –
5 | CN(C)CCc1c[nH]c2cccc(OCOC(=O)C(C)(C)C)c12 [Compound 15a, 4-Pivaloyloxymethyloxy-N,N-dimethyltryptammonium fumarate] | 61.6 ± 6.0 | 61.6 ±18.4 | 4 | 9.1 ± 0.5 10^-6 cm/s | 15 to 60 | > 300 | – | – | – | – | –
6 | CCCC(=O)Oc1cccc2[nH]cc(CCN(C)CC)c12 [Compound 8b, 4-Butyryloxy-N-ethyl-N-methyltryptammonium fumarate] | 88.1 ± 6.0 | 83.7 ± 1.0 | 4 | at least 8 10^-6 cm/s | 15 to 60 | – | – | 9.2 ± 0.8 | – | 0.64 ± 0.04 | approximately 50%

— EP4592276A1, “NOVEL ACY[…] OF PSILOCIN AND RELATED 4-HYDROXYT[…] BY AN EFFICIENT […] APPROACH” (Universität Heidelberg, priority 2024, dated 2025)
